# In patent publication US20060210528A1, “Therapy for tropical diseases” (Aspire Biotech, Inc., priority 2001, published 2006):
# Tested on: plantar warts
# Assay: Treatment of plantar warts on a patient's feet with an in situ polymeric film versus freezing
# Type: in vivo, human
# Procedure: The following examples illustrate how the methods of this invention could be used.
# A patient presents to a dermatologist with two similar plantar warts on the soles of their left and right feet. The wart on the right foot is treated by freezing with liquid nitrogen.
smiles,measurement,setting,value
N#N [liquid nitrogen],pain on treated foot,plantar wart on sole of foot,makes walking on the foot painful for several days
same,time until wart resolves,"plantar wart on sole of foot, film re-applied every 3-4 days",3 weeks
same,return of wart after resolution,"plantar wart, film treatment continued two weeks after resolution",has returned after two months
